Results taken from patent publication US20240391930A1, “SPIROCYCLIC BICYCLIC MODULATORS OF CHOLESTEROL BIOSYNTHESIS AND THEIR USE FOR PROMOTING REMYELINATION” (GENENTECH, INC., priority 2021, published 2024).

Columns and labels:
EpiSC-derived OPCs = experiment: In vitro phenotypic screening of OPCs (MBP high-content imaging); assay type: cell-based; settings: Mus musculus, 72 h; percentage of MBP-positive oligodendrocytes, 3 days, 0.5 nM to 1000 nM; read-out: OPC EC50
Procedure, shortened: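 Mouse EpiSC-derived OPCs seeded at 150,000/cm^2 without growth factors, treated 3 days at 37° C with 8-point doses from 1000 nM to 0.5 nM. Fixed, MBP immunostained with DAPI; high-content imaging gives percentage MBP-positive oligodendrocytes.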

human EBP = target: T1, human EBP (Homo sapiens, UniProt Q15125); experiment: hEBP SPA competition binding assay ([3H]-Ifenprodil)
T1 construct: expressed in transfected cells; host or cells: human embryonic kidney 293 cells
Description: Membrane preparation: To examine compound binding affinity to EBP, human EBP was overexpressed in human embryonic kidney 293 cells. Cell pellet was lysed in 10 times weight binding buffer (50 mM Tris, 5 mM MgCl2, 0.1 mM EDTA, lx protease inhibitor cocktail, pH 7.5) on ice by using a dounce homogenizer. The solution was centrifuged at 25,000 g for 50 min at 4° C. The membrane pellet was re-suspended in binding buffer and run through a 25⅝ gauge needle. After checking the concentration by Bradford assay, the whole cell membrane solution was adjusted to 20 mg/mL and stored at −80° C.
This binding solution was centrifuged at 400 g for 5 minutes to collect the bead/membrane mixture. After re-suspending the pellet in binding buffer at the same calculated volume with 0.01% BSA (Sigma A1933), the bead/membrane mixture was added in 384-well low-binding surface plate (PerkinElmer Cat #6057480) at 25 µl/well. Radioligand at different concentrations with and without the non-radio-labeled same ligand 5 uM (for nonspecific and total signal, respectively) was added to bring final volume to 50 µl/well with DMSO concentration at 0.1%. At equilibrium (3 hours after ligand addition), radiometric signal CPM was counted by using a Microbeta2 microplate counter (Perkinelmer).
A pre-incubated bead/membrane mixture was added in compound plate at 0.3 mg beads and […] membrane per well. […] At equilibrium (3 hours after ligand addition), radiometric signal was counted as described above. The percentage inhibition of compound at each testing concentration was calculated by normalizing each condition's CPM readout to full block (5 uM non-radiolabeled ligand) and non-block (DMSO) control conditions. Compound binding inhibition IC50 was determined by nonlinear regression fitting of percentage inhibition plot against compound concentration. Compound Ki was calculated from the equation Ki=IC50/(1+[L]/Kd), which [L] was radioligand concentration used in assay. All tests had N bigger or equal to 2.

T1 sequence (Q15125 whole entry): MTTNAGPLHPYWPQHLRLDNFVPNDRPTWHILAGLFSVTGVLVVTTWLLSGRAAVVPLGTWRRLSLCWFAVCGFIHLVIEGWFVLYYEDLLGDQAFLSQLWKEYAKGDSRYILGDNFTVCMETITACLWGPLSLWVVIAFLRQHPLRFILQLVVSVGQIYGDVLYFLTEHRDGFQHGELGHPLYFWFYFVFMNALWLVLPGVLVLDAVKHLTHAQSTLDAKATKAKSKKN

Row | SMILES | EC50 (EpiSC-derived OPCs) | Ki (human EBP)
1 | CC(C)n1nc(-c2cccc(C(F)(F)F)n2)cc1[C@H]1[C@@H]2C[C@@H](N3CCC4(C3)CS(=O)(=O)C4)C[C@@H]21 (single isomer, unassigned) [Compound 11] | 14 nM | 36 nM
2 | CC(C)n1nc(-c2cncc(C(F)(F)F)c2)nc1[C@H]1[C@@H]2C[C@@H](N3CCC4(C3)CS(=O)(=O)C4)C[C@@H]21 (single isomer, unassigned) [Compound 16] | 24 nM | 20 nM
3 | CC(C)n1nc(-c2ccnc(C(F)(F)F)n2)cc1[C@H]1[C@@H]2C[C@H](N3CCC4(C3)CS(=O)(=O)C4)C[C@@H]21 [Compound 15, 6-((1R,3r,5S,6r)-6-(1-Isopropyl-3-(2-(trifluoromethyl)pyrimidin-4-yl)-1H-pyrazol-5-yl)bicyclo[3.1.0]hexan-3-yl)-2-thia-6-azaspiro[3.4]octane 2,2-dioxide] | 6.6 nM | 19 nM
4 | CC(C)n1nc(C2(C(F)(F)F)CC2)cc1[C@H]1[C@@H]2C[C@H](N3CCC4(C3)CS(=O)(=O)C4)C[C@@H]21 [Compound 32, 6-((1R,3r,5S,6r)-6-(1-Isopropyl-3-(1-(trifluoromethyl)cyclopropyl)-1H-pyrazol-5-yl)bicyclo[3.1.0]hexan-3-yl)-2-thia-6-azaspiro[3.4]octane 2,2-dioxide] | 29 nM | 23 nM
5 | CC(C)n1nc(-c2cccc(C(F)(F)F)c2)cc1[C@H]1[C@@H]2C[C@@H](N3CCC4(C3)CS(=O)(=O)C4)C[C@@H]21 (single isomer, unassigned) [Compound 2] | 0.9 nM | 38 nM
6 | CC(C)n1nc(-c2cncc(C(F)(F)F)c2)cc1[C@H]1[C@@H]2C[C@H](N3CCC4(C3)CS(=O)(=O)C4)C[C@@H]21 (single isomer, unassigned) [Compound 4] | 14 nM | 31 nM
7 | CC(C)n1nc(-c2cc(C(F)(F)F)ccn2)cc1[C@H]1[C@@H]2C[C@@H](N3CCC4(C3)CS(=O)(=O)C4)C[C@@H]21 (single isomer, unassigned) [Compound 20] | 39 nM | 62 nM
8 | C=C(c1cc([C@H]2[C@@H]3C[C@H](N4CCC5(C4)CS(=O)(=O)C5)C[C@@H]32)n(C(C)C)n1)C(F)(F)F [Compound 31, 6-((1R,3r,5S,6r)-6-(1-Isopropyl-3-(3,3,3-trifluoroprop-1-en-2-yl)-1H-pyrazol-5-yl)bicyclo[3.1.0]hexan-3-yl)-2-thia-6-azaspiro[3.4]octane 2,2-dioxide] | 30 nM | 37 nM
9 | CC(C)n1nc(-c2cncc(C(F)(F)F)c2)cc1[C@H]1[C@@H]2C[C@H](N3CC4(C3)CS(=O)(=O)C4)C[C@@H]21 (single isomer, unassigned) [Compound 99*] | 300 nM | 58 nM
10 | CC(C)n1nc(-c2cccc(C(F)(F)F)n2)cc1[C@H]1[C@@H]2C[C@H](N3CCC4(C3)CS(=O)(=O)C4)C[C@@H]21 (single isomer, unassigned) [Compound 12] | 9.7 nM | 17 nM
11 | CC(C)n1nc(C(F)(F)F)cc1[C@H]1[C@@H]2C[C@@H](N3CCC4(C3)CS(=O)(=O)C4)C[C@@H]21 (single isomer, unassigned) [Compound 22] | 53 nM | 30 nM
12 | CC(C)n1nc(-c2cccc(C(F)(F)F)n2)cc1[C@H]1[C@@H]2C[C@H](N3CCC4(CC3)CS(=O)(=O)C4)C[C@@H]21 (single isomer, unassigned) [Compound 48] | 15 nM | 15 nM
13 | CC(C)n1nc(-c2ccnc(C(F)(F)F)c2)cc1[C@H]1[C@@H]2C[C@H](N3CCC4(C3)CS(=O)(=O)C4)C[C@@H]21 (single isomer, unassigned) [Compound 19] | 13 nM | 16 nM
14 | CC(C)n1nc(-c2ccnc(C(F)(F)F)n2)cc1[C@H]1[C@@H]2C[C@@H](N3CCC4(CC3)CS(=O)(=O)C4)C[C@@H]21 (single isomer, unassigned) [Compound 49] | 4.6 nM | 24 nM
15 | CC(C)n1nc(-c2ccnc(C(F)(F)F)n2)cc1[C@H]1[C@@H]2C[C@@H](N3CCC4(C3)CS(=O)(=O)C4)C[C@@H]21 [Compound 28, 6-((1R,3s,5S,6r)-6-(1-isopropyl-3-(2-(trifluoromethyl)pyrimidin-4-yl)-1H-pyrazol-5-yl)bicyclo[3.1.0]hexan-3-yl)-2-thia-6-azaspiro[3.4]octane 2,2-dioxide] | 39 nM | 22 nM
16 | CC(C)n1nc(-c2cncc(C(F)(F)F)c2)cc1[C@H]1[C@@H]2C[C@@H](N3CC4(C3)CS(=O)(=O)C4)C[C@@H]21 (single isomer, unassigned) [Compound 98*] | 300 nM | 51 nM
17 | CC(C)n1nc(-c2ccnc(C(F)(F)F)c2)cc1[C@H]1[C@@H]2C[C@@H](N3CCC4(C3)CS(=O)(=O)C4)C[C@@H]21 (single isomer, unassigned) [Compound 18] | 15 nM | 30 nM
18 | CC(C)n1nc(-c2cnc(C(F)(F)F)nc2)cc1[C@H]1[C@@H]2C[C@H](N3CCC4(C3)CS(=O)(=O)C4)C[C@@H]21 [Compound 6, 6-((1R,3r,5S,6r)-6-(1-Isopropyl-3-(2-(trifluoromethyl)pyrimidin-5-yl)-1H-pyrazol-5-yl)bicyclo[3.1.0]hexan-3-yl)-2-thia-6-azaspiro[3.4]octane 2,2-dioxide] | 200 nM | 19 nM
19 | CC(C)n1nc(-c2cncc(C(F)(F)F)c2)cc1[C@H]1[C@@H]2C[C@H](N3CC[C@@]4(CCS(=O)(=O)C4)C3)C[C@@H]21 (single isomer, unassigned) [Compound 9*] | 3.8 nM | 26 nM
20 | CC(C)n1nc(C(F)(F)F)cc1[C@H]1[C@@H]2C[C@H](N3CCC4(C3)CS(=O)(=O)C4)C[C@@H]21 (single isomer, unassigned) [Compound 23] | 53 nM | 13 nM
21 | CC(C)n1nc(-c2cncc(C(F)(F)F)c2)nc1[C@H]1[C@@H]2C[C@H](N3CCC4(C3)CS(=O)(=O)C4)C[C@@H]21 (single isomer, unassigned) [Compound 17] | 420 nM | 67 nM
22 | CC(C)n1nc(-c2cncc(C(F)(F)F)c2)cc1[C@H]1[C@@H]2C[C@H](N3CCC4(CC3)CS(=O)(=O)C4)C[C@@H]21 (single isomer, unassigned) [Compound 40] | 15 nM | 26 nM
23 | CCn1nc(-c2cncc(C(F)(F)F)c2)cc1[C@H]1[C@@H]2C[C@@H](N3CCC4(C3)CS(=O)(=O)C4)C[C@@H]21 (single isomer, unassigned) [Compound 24] | 9.3 nM | 30 nM
24 | CC(C)n1nc(-c2ccc(C(F)(F)F)cc2)cc1[C@H]1[C@@H]2C[C@H](N3CCC4(C3)CS(=O)(=O)C4)C[C@@H]21 [Compound 5, 6-((1R,3r,5S,6r)-6-(1-Isopropyl-3-(4-(trifluoromethyl)phenyl)-1H-pyrazol-5-yl)bicyclo[3.1.0]hexan-3-yl)-2-thia-6-azaspiro[3.4]octane 2,2-dioxide] | 8 nM | 22 nM
25 | CC(C)n1nc(-c2cc(C(F)(F)F)ccn2)cc1[C@H]1[C@@H]2C[C@H](N3CCC4(C3)CS(=O)(=O)C4)C[C@@H]21 (single isomer, unassigned) [Compound 21] | 6.6 nM | 43 nM
26 | CC(C)n1nc(-c2cncc(C(F)(F)F)c2)cc1[C@H]1[C@@H]2C[C@@H](N3CCC4(CC3)CS(=O)(=O)C4)C[C@@H]21 (single isomer, unassigned) [Compound 38] | 4.9 nM | 26 nM
27 | CCn1nc(-c2cncc(C(F)(F)F)c2)cc1[C@H]1[C@@H]2C[C@H](N3CCC4(C3)CS(=O)(=O)C4)C[C@@H]21 (single isomer, unassigned) [Compound 25] | 4.2 nM | 26 nM
28 | CC(C)n1nc(-c2cccc(C(F)(F)F)n2)cc1[C@H]1[C@@H]2C[C@@H](N3CCC4(CC3)CS(=O)(=O)C4)C[C@@H]21 (single isomer, unassigned) [Compound 47] | 1.7 nM | 19 nM
29 | CC(C)n1nc(-c2ccnc(C(F)(F)F)n2)cc1[C@H]1[C@@H]2C[C@H](N3CCC4(CC3)CS(=O)(=O)C4)C[C@@H]21 (single isomer, unassigned) [Compound 50] | 69 nM | 18 nM
